Remaining binding data for three compounds are collected here from patent publication US12275731B2, “Azaindole inhibitors of wild-type and mutant forms of LRRK2” (DANA-FARBER CANCER INSTITUTE, INC., priority 2018, dated 2025).

Common to all, as to assay: KinomeScan profiling
Holding throughout (assay type): binding

For assay [1], the target named is ERK3 (Homo sapiens, UniProt Q16659). The following applies: ERK3, 1 μM; read-out: % control. The procedure, abridged: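 1 μM cpd in DMSO; 468-kinase panel; readout RLU. % ctrl = (cpd − pos ctrl)/(neg ctrl − pos ctrl) ×100. Pos ctrl = 0%, DMSO = 100%. Hit cut-off <35%.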
In assay [2] the target is T1, BIKE (Homo sapiens, UniProt Q9NSY1).
T1 construct: purchased KinomeScan®
The following applies: read-out: % control. The procedure, abridged:
(§1)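 Normalised RLU (% control; DMSO 100%, positive control 0%) was measured for compounds dosed at 1 μM over 468 kinases, active cut-off <35%.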

Assay [3] has as its target ROS1 (Homo sapiens, UniProt P08922). The following applies: ROS1, 1 μM; read-out: % control. An outline of the steps: as §1
The target of assay [4] is CAMK2D (Homo sapiens, UniProt Q13557). The note with it: read-out: % control. The procedure, abridged:
as §1

Assay [5] concerns the target T2, LATS1 (Homo sapiens, UniProt O95835).
T2 construct: purchased KinomeScan®
T2 sequence (O95835 1-1130): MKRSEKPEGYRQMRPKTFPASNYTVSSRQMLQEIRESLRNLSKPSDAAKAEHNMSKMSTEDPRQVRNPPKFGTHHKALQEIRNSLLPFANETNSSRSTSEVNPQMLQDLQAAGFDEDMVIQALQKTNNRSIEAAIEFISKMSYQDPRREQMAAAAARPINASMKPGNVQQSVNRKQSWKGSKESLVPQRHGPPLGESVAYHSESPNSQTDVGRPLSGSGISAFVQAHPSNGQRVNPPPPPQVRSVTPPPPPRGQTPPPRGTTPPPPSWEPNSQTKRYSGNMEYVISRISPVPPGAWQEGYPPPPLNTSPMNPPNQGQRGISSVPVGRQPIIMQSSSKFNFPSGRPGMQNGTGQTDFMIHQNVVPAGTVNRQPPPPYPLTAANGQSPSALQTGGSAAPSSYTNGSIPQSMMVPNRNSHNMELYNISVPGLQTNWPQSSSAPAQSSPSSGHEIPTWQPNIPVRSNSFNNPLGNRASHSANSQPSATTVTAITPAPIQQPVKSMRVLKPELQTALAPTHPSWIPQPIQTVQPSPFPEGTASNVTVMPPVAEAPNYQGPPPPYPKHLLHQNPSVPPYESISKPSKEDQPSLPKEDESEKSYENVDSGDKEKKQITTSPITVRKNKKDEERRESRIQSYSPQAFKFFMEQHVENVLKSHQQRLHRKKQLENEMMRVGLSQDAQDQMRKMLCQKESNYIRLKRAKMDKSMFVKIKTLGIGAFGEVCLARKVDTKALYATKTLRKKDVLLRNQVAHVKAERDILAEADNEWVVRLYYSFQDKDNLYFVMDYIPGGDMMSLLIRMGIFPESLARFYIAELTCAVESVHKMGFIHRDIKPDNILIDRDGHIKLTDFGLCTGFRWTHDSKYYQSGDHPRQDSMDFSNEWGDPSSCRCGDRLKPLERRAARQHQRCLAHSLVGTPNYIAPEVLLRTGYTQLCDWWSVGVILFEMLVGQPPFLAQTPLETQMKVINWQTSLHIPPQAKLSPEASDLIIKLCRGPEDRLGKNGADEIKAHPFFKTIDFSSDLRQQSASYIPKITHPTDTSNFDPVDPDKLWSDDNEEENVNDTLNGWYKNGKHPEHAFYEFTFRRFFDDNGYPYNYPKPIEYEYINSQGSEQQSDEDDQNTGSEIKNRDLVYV
The following applies: LATS1, 1 μM; read-out: % control. The procedure, abridged: as §1

The target in assay [6] is EGFR(G719C) (Homo sapiens, UniProt P00533, G719C). The note with it: read-out: % control. The procedure, abridged: as §1
Assay [7] concerns the target T3, ABL1-phosphorylated (Homo sapiens, UniProt P00519).
T3 construct: purchased KinomeScan®
The following applies: read-out: % control. The procedure, abridged: as §1

The target in assay [8] is T4, RSK3(Kin.Dom.1-N-terminal) (Homo sapiens, UniProt Q15349).
T4 construct: RSK3(Kin.Dom.1-N-terminal)
The note with it: read-out: % control. The procedure, abridged:
as §1

Assay [9] addresses QSK (Homo sapiens, UniProt Q9Y2K2). The following applies: read-out: % control. The procedure, abridged:
as §1

The target in assay [10] is RIPK2 (Homo sapiens, UniProt O43353). The following applies: RIPK2, 1 μM; read-out: % control. An outline of the steps: as §1
The target in assay [11] is CSK (Homo sapiens, UniProt P41240). The following applies: read-out: % control. An outline of the steps: as §1
The target of assay [12] is T5, p38-delta (Homo sapiens, UniProt O15264).
T5 sequence (O15264 1-365): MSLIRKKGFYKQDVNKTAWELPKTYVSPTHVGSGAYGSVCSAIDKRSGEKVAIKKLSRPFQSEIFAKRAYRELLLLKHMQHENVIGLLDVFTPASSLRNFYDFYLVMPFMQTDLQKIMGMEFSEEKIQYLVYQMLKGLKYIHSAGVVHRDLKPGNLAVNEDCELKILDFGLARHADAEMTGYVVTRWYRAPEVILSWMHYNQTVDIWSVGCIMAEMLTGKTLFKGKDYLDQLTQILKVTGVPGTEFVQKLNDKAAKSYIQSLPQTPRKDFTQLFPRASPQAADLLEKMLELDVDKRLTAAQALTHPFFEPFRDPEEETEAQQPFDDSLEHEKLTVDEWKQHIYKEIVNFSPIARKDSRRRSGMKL
The following applies: read-out: % control. An outline of the steps: as §1

Assay [13] concerns the target T6, KIT(V559D, V654A) (Homo sapiens, UniProt P10721, V559D/V654A).
T6 construct: purchased KinomeScan®
The note with it: read-out: % control. The procedure, abridged: as §1

For assay [14], the target named is TIE2 (Homo sapiens, UniProt Q02763). The note with it: TIE2, 1 μM; read-out: % control. An outline of the steps: as §1
Assay [15] addresses NEK6 (Homo sapiens, UniProt Q9HC98). The following applies: NEK6, 1 μM; read-out: % control. An outline of the steps: as §1
Assay [16] has as its target p38-alpha (Homo sapiens, UniProt Q16539). The following applies: read-out: % control. An outline of the steps: as §1
The target of assay [17] is T7, ABL1-nonphosphorylated (Homo sapiens, UniProt P00519).
T7 construct: purchased KinomeScan®
The note with it: read-out: % control. The procedure, abridged:
as §1

In assay [18] the target is CSNK1E (Homo sapiens, UniProt P49674). The note with it: read-out: % control. An outline of the steps:
as §1

Sequence of EGFR(G719C) (P00533 25-1210 G719C): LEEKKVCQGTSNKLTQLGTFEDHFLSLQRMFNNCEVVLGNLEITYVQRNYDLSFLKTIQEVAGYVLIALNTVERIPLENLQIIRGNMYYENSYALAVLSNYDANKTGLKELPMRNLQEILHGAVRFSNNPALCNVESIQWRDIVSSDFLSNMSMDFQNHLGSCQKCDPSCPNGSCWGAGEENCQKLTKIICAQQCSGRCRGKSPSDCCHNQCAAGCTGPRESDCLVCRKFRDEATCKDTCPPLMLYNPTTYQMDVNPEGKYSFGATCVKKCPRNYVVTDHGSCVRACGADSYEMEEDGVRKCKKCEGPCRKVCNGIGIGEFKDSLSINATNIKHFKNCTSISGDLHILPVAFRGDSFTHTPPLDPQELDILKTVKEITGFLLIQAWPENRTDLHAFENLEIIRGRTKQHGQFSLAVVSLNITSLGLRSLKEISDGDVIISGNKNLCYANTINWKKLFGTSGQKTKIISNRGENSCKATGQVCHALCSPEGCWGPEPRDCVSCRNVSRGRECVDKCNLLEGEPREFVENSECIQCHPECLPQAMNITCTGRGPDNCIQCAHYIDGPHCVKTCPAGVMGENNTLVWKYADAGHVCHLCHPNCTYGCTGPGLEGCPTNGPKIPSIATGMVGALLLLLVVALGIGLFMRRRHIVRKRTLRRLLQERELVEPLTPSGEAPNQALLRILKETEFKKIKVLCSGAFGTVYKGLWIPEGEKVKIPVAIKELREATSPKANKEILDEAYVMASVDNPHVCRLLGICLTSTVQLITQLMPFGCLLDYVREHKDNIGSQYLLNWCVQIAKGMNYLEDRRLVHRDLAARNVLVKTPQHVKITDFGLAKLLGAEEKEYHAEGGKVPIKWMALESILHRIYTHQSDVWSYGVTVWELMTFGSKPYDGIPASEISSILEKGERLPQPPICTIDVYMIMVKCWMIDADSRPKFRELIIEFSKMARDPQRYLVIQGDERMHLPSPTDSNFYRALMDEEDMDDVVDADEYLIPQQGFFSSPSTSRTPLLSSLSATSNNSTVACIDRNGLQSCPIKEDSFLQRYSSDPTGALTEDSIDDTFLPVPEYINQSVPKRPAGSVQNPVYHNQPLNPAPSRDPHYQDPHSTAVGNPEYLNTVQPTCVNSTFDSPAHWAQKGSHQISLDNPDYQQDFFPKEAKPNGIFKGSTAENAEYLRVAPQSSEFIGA
Sequence of p38-alpha (Q16539 whole entry): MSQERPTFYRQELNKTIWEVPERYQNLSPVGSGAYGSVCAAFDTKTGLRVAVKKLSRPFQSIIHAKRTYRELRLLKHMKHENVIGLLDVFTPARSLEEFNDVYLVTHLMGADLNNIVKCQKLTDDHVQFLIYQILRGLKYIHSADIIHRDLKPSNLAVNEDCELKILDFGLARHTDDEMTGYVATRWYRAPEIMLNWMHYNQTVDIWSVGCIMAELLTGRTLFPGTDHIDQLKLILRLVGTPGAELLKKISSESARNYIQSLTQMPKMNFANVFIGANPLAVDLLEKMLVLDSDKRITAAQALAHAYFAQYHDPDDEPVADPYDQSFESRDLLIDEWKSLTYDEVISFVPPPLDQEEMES
Sequence of QSK (Q9Y2K2 whole entry): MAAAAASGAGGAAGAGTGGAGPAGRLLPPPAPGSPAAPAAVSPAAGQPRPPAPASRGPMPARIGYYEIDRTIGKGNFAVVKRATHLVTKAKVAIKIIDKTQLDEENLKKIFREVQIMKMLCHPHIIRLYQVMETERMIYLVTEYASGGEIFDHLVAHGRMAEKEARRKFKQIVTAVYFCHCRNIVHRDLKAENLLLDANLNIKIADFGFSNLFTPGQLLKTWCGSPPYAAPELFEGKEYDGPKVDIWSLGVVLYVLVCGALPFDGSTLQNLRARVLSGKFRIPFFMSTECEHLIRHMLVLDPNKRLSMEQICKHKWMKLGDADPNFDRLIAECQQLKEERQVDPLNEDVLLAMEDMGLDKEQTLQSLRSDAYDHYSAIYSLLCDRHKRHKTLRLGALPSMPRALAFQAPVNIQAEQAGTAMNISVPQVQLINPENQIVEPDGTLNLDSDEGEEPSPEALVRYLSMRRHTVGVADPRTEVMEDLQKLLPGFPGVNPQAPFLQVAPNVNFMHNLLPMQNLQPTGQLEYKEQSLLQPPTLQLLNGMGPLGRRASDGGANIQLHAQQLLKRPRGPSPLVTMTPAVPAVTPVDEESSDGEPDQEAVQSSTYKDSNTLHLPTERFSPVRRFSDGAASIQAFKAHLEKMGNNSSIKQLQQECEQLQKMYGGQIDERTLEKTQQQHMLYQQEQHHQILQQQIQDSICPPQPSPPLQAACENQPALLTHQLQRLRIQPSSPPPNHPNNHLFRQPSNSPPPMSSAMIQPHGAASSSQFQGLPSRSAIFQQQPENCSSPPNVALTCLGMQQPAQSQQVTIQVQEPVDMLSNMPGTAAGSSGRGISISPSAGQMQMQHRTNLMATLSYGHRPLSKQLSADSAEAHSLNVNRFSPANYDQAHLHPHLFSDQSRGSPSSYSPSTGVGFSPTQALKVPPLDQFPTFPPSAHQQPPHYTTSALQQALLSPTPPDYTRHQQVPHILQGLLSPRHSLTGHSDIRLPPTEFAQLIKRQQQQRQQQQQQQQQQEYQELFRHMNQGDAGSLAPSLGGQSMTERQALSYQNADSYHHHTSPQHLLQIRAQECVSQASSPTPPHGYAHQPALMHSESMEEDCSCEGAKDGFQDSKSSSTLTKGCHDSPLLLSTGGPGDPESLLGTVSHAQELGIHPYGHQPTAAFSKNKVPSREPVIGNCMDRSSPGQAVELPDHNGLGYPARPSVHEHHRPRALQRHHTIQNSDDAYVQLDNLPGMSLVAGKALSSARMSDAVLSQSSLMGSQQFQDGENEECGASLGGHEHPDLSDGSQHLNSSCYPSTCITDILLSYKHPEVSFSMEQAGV
Sequence of CSK (P41240 whole entry): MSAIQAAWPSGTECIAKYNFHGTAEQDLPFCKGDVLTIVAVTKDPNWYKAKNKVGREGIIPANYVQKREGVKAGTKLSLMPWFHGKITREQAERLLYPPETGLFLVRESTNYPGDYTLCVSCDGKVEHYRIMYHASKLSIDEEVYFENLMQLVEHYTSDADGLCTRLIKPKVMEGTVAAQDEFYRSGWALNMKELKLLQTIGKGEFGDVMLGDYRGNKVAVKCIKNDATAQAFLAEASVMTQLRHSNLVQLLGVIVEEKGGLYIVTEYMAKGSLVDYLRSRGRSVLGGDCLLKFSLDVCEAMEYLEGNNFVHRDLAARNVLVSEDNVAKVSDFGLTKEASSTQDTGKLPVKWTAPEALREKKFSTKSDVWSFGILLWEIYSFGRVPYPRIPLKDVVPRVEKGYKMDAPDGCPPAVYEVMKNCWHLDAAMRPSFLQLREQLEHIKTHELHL
Sequence of ERK3 (Q16659 whole entry): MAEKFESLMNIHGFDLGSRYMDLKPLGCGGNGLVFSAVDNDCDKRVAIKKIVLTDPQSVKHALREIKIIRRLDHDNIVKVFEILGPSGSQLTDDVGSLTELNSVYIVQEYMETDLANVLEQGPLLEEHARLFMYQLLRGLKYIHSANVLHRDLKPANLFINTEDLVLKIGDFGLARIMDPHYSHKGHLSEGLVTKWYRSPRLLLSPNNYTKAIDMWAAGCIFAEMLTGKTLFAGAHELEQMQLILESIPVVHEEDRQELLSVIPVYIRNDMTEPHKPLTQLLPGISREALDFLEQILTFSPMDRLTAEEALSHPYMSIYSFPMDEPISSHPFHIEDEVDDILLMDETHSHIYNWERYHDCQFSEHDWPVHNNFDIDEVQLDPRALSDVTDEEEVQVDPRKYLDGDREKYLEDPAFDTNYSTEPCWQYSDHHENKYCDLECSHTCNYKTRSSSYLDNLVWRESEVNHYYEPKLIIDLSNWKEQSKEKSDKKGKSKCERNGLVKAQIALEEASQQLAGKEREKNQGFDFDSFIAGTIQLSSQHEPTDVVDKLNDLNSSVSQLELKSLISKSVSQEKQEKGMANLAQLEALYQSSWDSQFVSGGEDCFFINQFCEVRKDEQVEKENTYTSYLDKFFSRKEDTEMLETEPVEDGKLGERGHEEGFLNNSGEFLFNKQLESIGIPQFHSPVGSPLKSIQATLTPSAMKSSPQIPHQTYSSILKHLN
Sequence of RIPK2 (O43353 whole entry): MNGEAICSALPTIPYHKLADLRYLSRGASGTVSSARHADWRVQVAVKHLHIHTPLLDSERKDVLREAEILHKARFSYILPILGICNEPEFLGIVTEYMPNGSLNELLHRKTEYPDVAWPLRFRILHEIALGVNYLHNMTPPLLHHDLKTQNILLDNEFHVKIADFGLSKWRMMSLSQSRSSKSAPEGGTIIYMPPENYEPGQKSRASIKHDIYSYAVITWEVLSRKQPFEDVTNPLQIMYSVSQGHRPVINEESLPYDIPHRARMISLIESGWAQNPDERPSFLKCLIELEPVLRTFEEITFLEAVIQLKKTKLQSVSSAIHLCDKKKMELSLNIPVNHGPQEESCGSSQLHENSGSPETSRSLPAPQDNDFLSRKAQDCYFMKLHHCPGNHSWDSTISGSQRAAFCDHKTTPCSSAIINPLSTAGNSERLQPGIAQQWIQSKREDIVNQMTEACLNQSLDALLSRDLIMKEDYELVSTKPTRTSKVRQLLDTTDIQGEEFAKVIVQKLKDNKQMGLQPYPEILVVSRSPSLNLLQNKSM
Sequence of NEK6 (Q9HC98 whole entry): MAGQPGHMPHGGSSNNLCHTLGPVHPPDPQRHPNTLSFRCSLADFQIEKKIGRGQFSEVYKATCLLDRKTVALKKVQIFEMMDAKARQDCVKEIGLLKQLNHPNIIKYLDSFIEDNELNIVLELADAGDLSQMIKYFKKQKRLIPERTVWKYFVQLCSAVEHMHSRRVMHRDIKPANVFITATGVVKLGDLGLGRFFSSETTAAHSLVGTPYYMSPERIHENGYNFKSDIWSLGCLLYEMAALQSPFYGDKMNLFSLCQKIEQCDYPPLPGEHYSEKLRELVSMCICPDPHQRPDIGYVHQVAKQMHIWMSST

In the case of `CNc1c(-c2ccc(C(=O)N3CCC(N4CCOCC4)CC3)cc2)cnc2[nH]cc(Cl)c12` [Compound 96, (4-(3-chloro-4-(methylamino)-1H-pyrrolo[2,3-b]pyridin-5-yl)phenyl)(4-morpholinopiperidin-1-yl)methanone], the remaining binding at 1 µM stood at 85% in assay [1]; 0.85% in [2]; 89% in assay [3]; 100% in assay [4]; 100% in assay [5]; 100% in assay [6]. The remaining binding at 1 µM was found to be 88% in assay [7]; 78% in [8]; 76% in assay [9]; 99% in assay [10]; 44% in [11]; 99% in assay [12]. Also, the remaining binding at 1 µM in [13] stood at 94%; in [14] it was 81%; in assay [15], 88%; in assay [16], 92%; in [17], 63%; in assay [18], 17%.
Consider `O=C(c1ccc(-c2cnc3[nH]cc(Cl)c3c2NC2CCCC2)cc1)N1CCC(N2CCOCC2)CC1` [Compound 101, (4-(3-chloro-4-(cyclopentylamino)-1H-pyrrolo[2,3-b]pyridin-5-yl)phenyl)(4-morpholinopiperidin-1-yl)methanone], for which the remaining binding at 1 µM in [1] was 100%; in [2], 6.8%; in assay [3], 73%; in assay [4] it was 93%; in assay [5], 100%; in assay [6] it was 91%. For the same compound, the remaining binding at 1 µM in assay [7] is 97%; in assay [8], 66%; in [9], 97%; in [10], 100%; in assay [11] it was 100%; in [12], 94%. Moreover, the remaining binding at 1 µM in [13] was 100%; in [14], 97%; in [15] it was 100%; in assay [16], 100%; in assay [17], 98%; in assay [18] it was 81%.
On to `CNc1c(-c2cnn([C@H]3CCN(C(C)=O)C[C@@H]3F)c2)cnc2[nH]cc(Cl)c12` [Compound 77, 1-((3S,4S)-4-(4-(3-chloro-4-(methylamino)-1H-pyrrolo[2,3-b]pyridin-5-yl)-1H-pyrazol-1-yl)-3-fluoropiperidin-1-yl)ethan-1-one], for which the remaining binding at 1 µM worked out at 87% in assay [1]; 0.4% in [2]; 74% in assay [3]; 100% in [4]; 91% in assay [5]; 91% in assay [6]. Besides, the remaining binding at 1 µM worked out at 62% in assay [7]; 80% in assay [8]; 76% in assay [9]; 100% in assay [10]; 22% in [11]; 96% in assay [12]. Besides, the remaining binding at 1 µM in assay [13] is 53%; in [14] it was 80%; in assay [15], 92%; in assay [16], 100%; in assay [17], 54%; in assay [18] it was 68%.
